Patent US20040115284A1, “Use of gamma-GT inhibitors for the treatment of degenerative diseases” (priority 2001, published 2004)
Marks after values point to notes of the source that are not given here.

Assays:
[1] = biological target: T1, γ-Glutamyl Transpeptidase (Mus musculus, UniProt Q60928); experiment: γ-glutamyl transpeptidase activity in Mpv17 −/− cells (LUSVX) grown in presence of MnTBAP or acivicin; type: cell-based
T1 construct: in the resuspended 105,000×g pellet containing 1% Triton X-100; endogenous in cells; host or cells: LUSVX cells (SV40-immortalised lung fibroblasts from Mpv17−/− mice)
T1 sequence (Q60928 1-379 limits assumed): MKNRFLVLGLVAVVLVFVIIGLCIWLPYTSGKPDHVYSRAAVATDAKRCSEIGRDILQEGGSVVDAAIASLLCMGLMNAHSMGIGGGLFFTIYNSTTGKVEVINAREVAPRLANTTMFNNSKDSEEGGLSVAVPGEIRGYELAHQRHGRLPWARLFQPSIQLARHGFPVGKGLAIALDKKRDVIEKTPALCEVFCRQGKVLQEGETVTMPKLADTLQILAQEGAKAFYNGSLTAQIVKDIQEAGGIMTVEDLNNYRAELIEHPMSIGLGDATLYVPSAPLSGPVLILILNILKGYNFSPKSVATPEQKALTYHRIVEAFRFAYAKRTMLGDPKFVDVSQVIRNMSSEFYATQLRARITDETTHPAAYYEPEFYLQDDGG
T1 sequence (Q60928 380-568 limits assumed): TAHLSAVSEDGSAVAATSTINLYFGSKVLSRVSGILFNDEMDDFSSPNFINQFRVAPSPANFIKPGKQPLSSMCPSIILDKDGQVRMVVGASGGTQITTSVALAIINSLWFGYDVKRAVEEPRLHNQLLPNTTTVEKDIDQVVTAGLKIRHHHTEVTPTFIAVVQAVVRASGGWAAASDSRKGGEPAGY
Text: (§1) Kidneys from background mice (CFW×Balb/c) and transgenic homozygous Mpv17−/− mice (H. Weiher, T. Noda, D. A. Gray, A. H. Sharpe and R. Jaenisch (1990), Cell, 62, pp. 425434) were obtained at an age of 7 to 9 months and frozen in liquid nitrogen. LUSVX cells (SV40 immortalised fibroblasts from the lungs of Mpv17−/− mice), and NIX1 5 cells (Mpv+/+ cells derived from LUSVX cells by stable transfection of an expression construct for the human Mpv17 cDNA) (A. Reuter. A. Nestl, R. M. Zwacka, J. Tuckermann, R. Waldherr, E. M. Wagner, M. Hoyhtya, A. M. Meyer zum Gottesberge, P. Angel and H. Weiher (1998), Molecular Biology of the Cell, 9, pp. 1675-1682) were grown in DMEM including 10% fetal calf serum (FCS) and 1 μg/ml puromycin (NIX15 cultures) at 6.5% CO2 Cells were harvested by trypsinisation and each 5×10^6 cells were washed in 1.5 ml of phosphate-buffered saline (PBS) before freezing the pellet in liquid nitrogen. Where indicated, Mn(III)tetrakis(4-benzoic acid)porphyrin (MnTBAP), final concentration 10 μM (Y. Noda, M. Kohno, A. Mori and L. Packer (1999), Methods in Enzymology, 299, pp. 28-34) (Calbiochem, Schwalbach, FRG), or the γ-GT inhibitor acivicin (AT-125), final concentration 50 μM (Sigma, Deisenhofen, FRG) were added in DMEM/10% FCS 18 h before harvesting the cells. Kidneys and cells were stored frozen at −80° C.
Cell fractions were prepared by differential centrifugation from 20% tissue and cell homogenates (w/v) in 10 mM potassium phosphate buffer, pH 7.0, containing 0.25 M sucrose, 150 mM potassium chloride, 1 mM EDTA, 2 mM dithiothreitol, and 50 μM phenylmethylsulfonyl fluoride. […] Protein was measured by the method of Bradford using bovine serum albumin as standard (M. M. Bradford (1976), Analytical Biochemistry, 72, pp. 248-254).

[2] = system: Glutathione Peroxidase; experiment: Glutathione peroxidase activity in Mpv17 −/− cells (LUSVX) grown in presence of MnTBAP or acivicin; type: cell-based, mouse
Text: as §1
Cell fractions were prepared by differential centrifugation from 20% tissue and cell homogenates (w/v) in 10 mM potassium phosphate buffer, pH 7.0, containing 0.25 M sucrose, 150 mM potassium chloride, 1 mM EDTA, 2 mM dithiothreitol, and 50 μM phenylmethylsulfonyl fluoride. Enzyme activities were determined at 25° C.: catalase in the 25,000×g (10 min) pellet H. E. Aebi (1983), In Methods of Enzymatic Analysis (ed. H. U. Bergmeyer), Verlag Chemie, Weinheim, pp. 273-276); glutathione peroxidase (GPx) (R. A. Lawrence and R. F. Burk (1976), Biochemical Biophysical Research Communications, 71, pp. 952-958), GSSG reductase (Goldberg, D. M. S. R. F. (1983) In Methods of Enzymatic Analysis (ed. H. U. Bergmeyer) Verlag Chemie, Weinheim, pp. 258-265), glutathione transferase (GST) with 1-chloro-2,4-dinitrobenzene (CDNB) W. H. Habig, M. J. Pabst and W. B. Jakoby (1974), Journal Biological Chemistry, 249, pp. 7130-7139, and superoxide dismutase (SOD) (S. Marklund and G. Marklund (1974), European Journal of Biochemistry, 47, pp. 469-474) in the 105,000×g (45 min) supernatant; γ-glutamyl transpeptidase (γ-GT) ) (S. Marklund and G. Marklund (1974), European Journal of Biochemistry, 47, pp. 469-474) in the resuspended 105,000×g pellet containing 1% Triton X-100. Protein was measured by the method of Bradford using bovine serum albumin as standard (M. M. Bradford (1976), Analytical Biochemistry, 72, pp. 248-254).

[3] = biological target: T2, γ-GT (Rattus norvegicus, UniProt P07314); conditions: short-term ischemia of rat kidney; Cutrin et al. 2000; cited from earlier work
T2 construct: oxidation damage during short-term ischemia of rat kidney
T2 sequence (P07314 1-379 limits assumed): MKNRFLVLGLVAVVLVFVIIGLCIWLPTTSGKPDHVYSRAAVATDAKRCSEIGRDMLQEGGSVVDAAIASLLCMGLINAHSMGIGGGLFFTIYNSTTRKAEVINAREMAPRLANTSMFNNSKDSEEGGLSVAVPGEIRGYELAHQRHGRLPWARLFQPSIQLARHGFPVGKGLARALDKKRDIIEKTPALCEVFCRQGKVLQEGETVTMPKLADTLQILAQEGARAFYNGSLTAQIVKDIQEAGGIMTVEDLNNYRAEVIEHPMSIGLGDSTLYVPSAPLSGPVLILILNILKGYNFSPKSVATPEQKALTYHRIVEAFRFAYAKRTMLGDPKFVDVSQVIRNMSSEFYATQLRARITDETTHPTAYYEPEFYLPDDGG
T2 sequence (P07314 380-568 limits assumed): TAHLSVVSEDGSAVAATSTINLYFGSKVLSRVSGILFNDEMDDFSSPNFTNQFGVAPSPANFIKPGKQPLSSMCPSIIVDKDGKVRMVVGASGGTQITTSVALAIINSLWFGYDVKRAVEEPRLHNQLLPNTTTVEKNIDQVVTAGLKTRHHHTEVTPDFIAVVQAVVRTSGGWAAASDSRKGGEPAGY

[4] = system: SOD mRNA; experiment: SOD mRNA levels by quantitative RT-PCR in Mpv17−/− cells; type: cell-based, mouse; conditions: Mpv17−/− cells with acivicin (γ-GT inhibition), FIG. 2B; β-actin reference
Text: (§2) Kidneys from background mice (CFW×Balb/c) and transgenic homozygous Mpv17-/- mice ([…]. Noda, D. A. Gray, A. H. Sharpe and R. Jaenisch (1990), Cell, 62, pp. 425434) were obtained at an age of 7 to 9 months and frozen in liquid nitrogen. LUSVX cells (SV40 immortalised fibroblasts from the lungs of Mpv17-/- mice), and NIX1 5 cells (Mpv+/+ cells derived from LUSVX cells by stable transfection of an expression construct for the human Mpv17 cDNA) (A. Reuter. […]. Tuckermann, […]. Wagner, […]. Meyer zum Gottesberge, P. Angel and […] (1998), Molecular Biology of the Cell, 9, pp. 1675-1682) were grown in DMEM including 10% fetal calf serum (FCS) and 1 μg/ml puromycin (NIX15 cultures) at 6.5% CO2 Cells were harvested by trypsinisation and each 5×10^6 cells were washed in 1.5 ml of phosphate-buffered saline (PBS) before freezing the pellet in liquid nitrogen. […] Noda, M. Kohno, A. Mori and L. […] Kidneys and cells were stored frozen at -80° C. mRNA levels were also measured. In particular, levels of mRNA were determined by quantitative RT-PCR. […] Amplified mRNA was separated on 1.5% agarose gels in Tris borate buffer (F. M. Ausubel (1995) Short protocols in molecular biology: a compendium of methods from current protocols in molecular biology. Wiley Press, New York) visualized with vista green (Amersham, Freiburg, FRG) and quantified with a FLA2000 Imager (FUJI).

[5] = system: pGPx mRNA; experiment: pGPx mRNA level by quantitative RT-PCR in Mpv17−/− cells; type: cell-based, mouse; conditions: Mpv17−/− cells with acivicin (γ-GT inhibition), FIG. 2B; β-actin reference
Text: as §2

[6] = LUSVX cells, MnTBAP 10 μM or acivicin 50 μM added 18 h before harvesting, means ± SEM (n = 3)
[7] = Mpv17−/− cells (LUSVX) grown in the presence of MnTBAP

| Compound | γ-Glutamyl Transpeptidase activity [1, 6] | γ-Glutamyl Transpeptidase activity, % of controls ([1]; LUSVX cells, MnTBAP 10 μM, 18 h, relative to untreated LUSVX) | change of γ-GT activity (in words) [1, 7] | Glutathione Peroxidase activity, % of controls ([2]; LUSVX cells, MnTBAP 10 μM or acivicin 50 μM, 18 h, relative to untreated LUSVX) | change of GPx activity (in words) [2, 7] | oxidation damage caused by γ-GT upregulation [3] | SOD mRNA levels [4] | pGPx mRNA level [5] | Glutathione Peroxidase activity [2, 6] | increase of GPx activity ([2]; Mpv17−/− cells grown in the presence of acivicin) | activity at 50 µM ([2]; Mus musculus, LUSVX cells, MnTBAP 10 μM or acivicin 50 μM, 18 h, relative to untreated LUSVX, read-out: Glutathione Peroxidase activity, % of controls) |
| --- | --- | --- | --- | --- | --- | --- | --- | --- | --- | --- | --- |
| O=C(O)c1ccc(-c2c3nc(c(-c4ccc(C(=O)O)cc4)c4ccc([n-]4)c(-c4ccc(C(=O)O)cc4)c4nc(c(-c5ccc(C(=O)O)cc5)c5ccc2[n-]5)C=C4)C=C3)cc1.[Mn+3] [MnTBAP, Mn(III)tetrakis(4-benzoic acid)porphyrin] | 0.94 ± 0.03 nmol/min per mg of protein | (95%) | Neither γ-GT nor GPx activities were changed significantly | (104%)^a) | Neither γ-GT nor GPx activities were changed significantly |  |  |  |  |  |  |
| N[C@H](C(=O)O)[C@@H]1CC(Cl)=NO1 [acivicin] |  |  |  |  |  | inhibitable | significant increase | significant increase | 53.5 ± 2.0 nmol/min per mg of protein | about 1.6 fold | 162% |
